Measured values published in article PMC2386552, “Toward the Assessment of Food Toxicity for Celiac Patients: Characterization of Monoclonal Antibodies to a Main Immunogenic Gluten Peptide” (PLoS ONE, 2008).

Assays:
G12 moAb = test: Indirect ELISA of C-LYTAG-peptide fusions (E. coli extracts) with moAb G12; assay type: binding; details: indirect ELISA of bacterial extracts containing the fusion peptides
Source text: (§1) To determine the epitope recognized by the G12 and A1 moAb within the 33-mer peptide, fusions of the C-LYTAG coding sequence of the pALEXb plasmid (Biomedal S.L., Sevilla, Spain) were constructed with coding sequences of hepta- and octapeptides comprising the complete sequence of the 33-mer peptide (Figure 3A). The resulting plasmids were introduced by transformation into the REG1 strain of Escherichia coli, allowing for over-expression of the encoded fusion proteins upon induction (Biomedal S.L., Sevilla, Spain). The over-expressed bacterial extracts were analyzed by indirect ELISA using the anti-33-mer A1 and G12 moAbs. Similarly, the anti-C-LYTAG 6B5L1 moAb (Biomedal, S.L., Sevilla, Spain) was used to establish that the designed protein was expressed intact in all cases. […]
(§2) A Maxisorp microtiter plate (Nunc, Roskilde, Denmark) was coated overnight at 4°C with 100 µL/well of the appropriate antigen (C-LYTAG-33-mer protein, gliadin, hordein, secalin, avenin, oryzein, zein or soluble protein extracts containing peptide fusions) serially diluted with 0.1 M of Na2CO3-NaHCO3 (pH 9.6). […] Absorbance at 450 nm was measured in the microplate reader UVM340 (Asys Hitech GmbH, Eugendorf, Austria).

A1 moAb = test: Indirect ELISA of C-LYTAG-peptide fusions (E. coli extracts) with moAb A1; assay type: binding; details: indirect ELISA of bacterial extracts containing the fusion peptides
Source text: as §1, §2

Row | Substance | signal with G12 moAb (G12 moAb) | signal with A1 moAb (A1 moAb)
1 | PQPQLPY [Pro63-Tyr69, C-LYTAG fusion peptide PQPQLPY expressed in E. coli] | positive signal | 
2 | QLPYPQP [Gln66-Pro72, C-LYTAG fusion peptide QLPYPQP expressed in E. coli] |  | positive signal
3 | QPQLPYP [Gln64-Pro70, C-LYTAG fusion peptide QPQLPYP expressed in E. coli] | positive signal | 
